Structures can show the parent of a compound that is named as a salt. Where two headings read alike, the source gives them in different places.
Columns and labels:
Type in all cases: biochemical
recombinant PRL-3 = molecular target: T1, recombinant PRL-3 (Homo sapiens, UniProt O75365); test: In vitro phosphatase assay (DiFMUP hydrolysis), PRL-3; further: test concentration or dose not given here
T1 construct: 6xHis (N, cleaved yes); made in house; host or cells: E. coli One Shot BL21 Star

recombinant PRL-1 = molecular target: T2, recombinant PRL-1 (Homo sapiens, UniProt Q93096); test: In vitro phosphatase assay (DiFMUP hydrolysis), PRL-1; further: test concentration or dose not given here
T2 construct: 6xHis (N, cleaved yes); made in house; host or cells: E. coli One Shot BL21 Star
T2 sequence (Q93096 1-173): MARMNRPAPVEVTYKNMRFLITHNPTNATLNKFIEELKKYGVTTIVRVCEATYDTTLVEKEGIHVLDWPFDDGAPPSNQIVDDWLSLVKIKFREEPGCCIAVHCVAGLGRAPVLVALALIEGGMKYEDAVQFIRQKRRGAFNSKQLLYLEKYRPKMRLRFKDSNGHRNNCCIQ

recombinant PRL-2 = molecular target: T3, recombinant PRL-2 (Homo sapiens, UniProt Q12974); test: In vitro phosphatase assay (DiFMUP hydrolysis), PRL-2;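 further: PRL-2 activity read as DiFMUP hydrolysis after 20 min at room temperature with drug, enzyme first pre-reduced at 4 °C for 20 min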
T3 construct: 6xHis (N, cleaved yes); made in house; host or cells: E. coli One Shot BL21 Star
T3 sequence (Q12974 1-167): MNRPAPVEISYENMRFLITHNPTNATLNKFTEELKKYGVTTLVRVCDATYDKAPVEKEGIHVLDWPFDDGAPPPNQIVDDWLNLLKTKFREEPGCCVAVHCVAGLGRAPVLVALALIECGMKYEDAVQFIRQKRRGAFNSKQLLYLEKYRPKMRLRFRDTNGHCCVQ
Protocol: Briefly, protein was diluted in reaction buffer and allowed to incubate at 4 °C for 20 min to allow for full reduction of the active site. DiFMUP, drug, and protein were added, and plates were incubated for 20 min at room temperature. Fluorescence intensities were measured on a Cytation 5 plate reader (Biotek) at an EX:360 nm and EM:460 nm. […] Inhibition selectivity for PRLs over a panel of other phosphatases was determined using PhosphataseProfiler (Eurofins, Cat # PP260).

[1] = FDA-approved drug screen, compared to DMSO
[2] = FDA-approved drug screen, activity compared to DMSO

T1 sequence (O75365 whole entry): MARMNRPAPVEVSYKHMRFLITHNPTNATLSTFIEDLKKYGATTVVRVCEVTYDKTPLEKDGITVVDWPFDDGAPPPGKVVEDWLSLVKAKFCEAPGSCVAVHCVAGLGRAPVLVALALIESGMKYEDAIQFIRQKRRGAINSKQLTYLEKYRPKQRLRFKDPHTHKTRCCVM

Row | SMILES | % Phosphatase Activity (compared to DMSO) PRL-3 (recombinant PRL-3; [1]) | % Phosphatase Activity (compared to DMSO) PRL-1 (recombinant PRL-1; [1]) | % Phosphatase Activity (compared to DMSO) PRL-2 (recombinant PRL-2; [1]) | % Phosphatase Activity (compared to DMSO) PRL-3 (recombinant PRL-3; [2]) | % Phosphatase Activity (compared to DMSO) PRL-1 (recombinant PRL-1; [2]) | % Phosphatase Activity (compared to DMSO) PRL-2 (recombinant PRL-2; [2]) | further results
1 | CC(=O)Oc1ccccc1C(=O)Nc1ncc([N+](=O)[O-])s1 [Nitazoxanide] | 62% | 87% | 76% |  |  |  | 
2 | Cc1cc(C(C)(C)C)cc(C)c1CC1=NCCN1 [Xylometazoline HCl] |  |  |  | 88% | 98% | 117% | 
3 | Oc1ncnc2[nH]ncc12 [Allopurinol] | 77% | 104% | 97% |  |  |  | 
4 | C[C@@H]1O[C@@H](OC[C@H]2O[C@@H](Oc3c(-c4ccc(O)c(O)c4)oc4cc(O)cc(O)c4c3=O)[C@H](O)[C@@H](O)[C@@H]2O)[C@H](O)[C@H](O)[C@H]1O [Rutin] | 71% | 88% | 82% |  |  |  | 
5 | CC1(C)O[C@@H]2C[C@H]3[C@@H]4C[C@H](F)C5=CC(=O)C=C[C@]5(C)[C@@]4(F)[C@@H](O)C[C@]3(C)[C@]2(C(=O)CO)O1 [Fluocinolone Acetonide] | 82% | 110% | 111% |  |  |  | 
6 | Cc1cccc(C)c1OCC(C)N (stereo not drawn) [Mexiletine HCl] |  |  |  |  |  |  | % Phosphatase Activity (compared to DMSO) PRL-3 (recombinant PRL-3): 78%; % Phosphatase Activity (compared to DMSO) PRL-1 (recombinant PRL-1): 98%; % Phosphatase Activity (compared to DMSO) PRL-2 (recombinant PRL-2): 106%
7 | CCN1CCCC1CNC(=O)c1cc(S(N)(=O)=O)ccc1OC (stereo not drawn) [Sulpiride] |  |  |  | 70% | 89% | 92% | 
8 | CCC[C@H](N[C@@H](C)C(=O)N1[C@H](C(=O)O)C[C@@H]2CCCC[C@@H]21)C(=O)OCC [Perindopril Erbumine] | 96% | 88% | 84% |  |  |  | 
9 | C#C[C@]1(O)CC[C@H]2[C@@H]3CCC4=CC(=O)CC[C@@H]4[C@H]3CC[C@@]21C [Norethindrone] | 79% | 92% | 104% |  |  |  | 
10 | Cc1cnc(NC(=O)C2=C(O)c3ccccc3S(=O)(=O)N2C)s1 [Meloxicam] | 83% | 74% | 75% |  |  |  | 
11 | CC(C)OC(=O)[C@H](C)N[P@](=O)(OC[C@H]1O[C@@H](n2ccc(=O)[nH]c2=O)[C@](C)(F)[C@@H]1O)Oc1ccccc1 [Sofosbuvir (PSI-7977, GS-7977)] |  |  |  | 89% | 87% | 96% | 
12 | O=C([O-])C(O)[C@H](O)[C@@H](O)[C@H](O)[C@H](O)CO.O=C([O-])C(O)[C@H](O)[C@@H](O)[C@H](O)[C@H](O)CO.[Ca+2] (stereo partly drawn) [Calcium Gluceptate] | 107% | 114% | 104% |  |  |  | 
13 | Oc1cc(Cl)ccc1Oc1ccc(Cl)cc1Cl [Triclosan] |  |  |  | 96% | 100% | 106% | 
14 | C[C@@H]1[C@H](O)[C@@H](C)/C=C/C=C/CC/C=C/C=C/C=C/C=C/[C@H](O[C@H]2O[C@@H](C)[C@H](O)[C@@H](N)[C@H]2O)C[C@@H]2O[C@](O)(C[C@@H](O)[C@H](O)CC[C@@H](O)C[C@@H](O)C[C@@H](O)CC(=O)O[C@H]1C)C[C@H](O)[C@H]2C(=O)O [Nystatin (Fungicidin)] | 81% | 79% | 87% |  |  |  | 
15 | Cl.N=C(N)NN [Aminoguanidine (hydrochloride)] | 87% | 100% | 91% |  |  |  | 
16 | Cc1cn([C@H]2C=C[C@@H](CO)O2)c(=O)[nH]c1=O [Stavudine (d4T)] |  |  |  | 88% | 104% | 90% | 
17 | COc1ccc(/C=C/C(=O)Nc2ccccc2C(=O)O)cc1OC [Tranilast] |  |  |  | 82% | 88% | 73% | 
18 | CCCNC(=O)NS(=O)(=O)c1ccc(Cl)cc1 [Chlorpropamide] | 80% | 98% | 105% |  |  |  | 
19 | Cn1cc(CNCC2CCN(c3ncc(C(=O)NO)cn3)CC2)c2ccccc21 [Quisinostat (JNJ-26481585)] | 92% | 121% | 109% |  |  |  | 
20 | Nc1[nH]c(=O)ncc1F [Flucytosine] | 74% | 99% | 92% |  |  |  | 
21 | Cc1ccc(C(=O)c2cc(O)c(O)c([N+](=O)[O-])c2)cc1 [Tolcapone] |  |  |  | 71% | 78% | 89% | 
22 | CN(C/C=C/C#CC(C)(C)C)Cc1cccc2ccccc12 [Terbinafine HCl] |  |  |  | 86% | 100% | 108% | 
23 | CNC(=C[N+](=O)[O-])NCCSCc1ccc(CN(C)C)o1 [Ranitidine] | 103% | 93% | 102% |  |  |  | 
24 | Cn1c(=O)c2[nH]cnc2n(C)c1=O [Aminophylline] | 62% | 97% | 96% |  |  |  | 
25 | CC(C)OC(=O)OCOP(=O)(CO[C@H](C)Cn1cnc2c(N)ncnc21)OCOC(=O)OC(C)C [Tenofovir Disoproxil Fumarate] |  |  |  | 82% | 95% | 93% | 
26 | CC(N)C12CC3CC(CC(C3)C1)C2 (stereo not drawn) [Rimantadine] | 80% | 91% | 106% |  |  |  | 

Reference: publication PMC8119466, “A screen of FDA-approved drugs identifies inhibitors of protein tyrosine phosphatase 4A3 (PTP4A3 or PRL-3)” (Scientific Reports, 2021)
